Data set [1] has as its target CDK4/CyclinD1 (Homo sapiens (Human), UniProt P11802). The data set is described as follows: CDK4/CyclinD1 kinase assay (Nanosyn, Caliper microfluidic). It counts as biochemical. The conditions noted are these: Table 2; read-out: CDK4/CycD1 IC50. As for the experimental part: (§1) Selected compounds disclosed herein were tested in CDK4/cyclinD1, CDK6/CycD3 CDK2/CycA and CDK2/cyclinE kinase assays by Nanosyn (Santa Clara, Calif.) to determine their inhibitory effect on these CDKs. The assays were performed using microfluidic kinase detection technology (Caliper Assay Platform). The compounds were tested in 12-point dose-response format in singlicate at Km for ATP. Phosphoacceptor substrate peptide concentration used was 1 μM for all assays and Staurosporine was used as the reference compound for all assays. Specifics of each assay are as described below:
CDK4/CyclinD1: Enzyme concentration: 1 nM; ATP concentration: 200 μM; Incubation time: 10 hr.

In data set [2] the test system is HS68 cells (human skin fibroblast cell line (Rb-positive)). The data set is described as follows: G1 arrest (cellular G1 and S-phase) assay. In kind it is cell-based. As for the experimental part:
For determination of cellular fractions in various stages of the cell cycle following various treatments, HS68 cells (human skin fibroblast cell line (Rb-positive)) were stained with propidium iodide staining solution and run on Dako Cyan Flow Cytometer. The fraction of cells in G0-G1 DNA cell cycle versus the fraction in S-phase DNA cell cycle was determined using FlowJo 7.2 0.2 analysis.
The compounds listed in Table 1 were tested for their ability to arrest HS68 cells at the G1 phase of the cell cycle.

Data set [3] concerns the target CDK2/CyclinE (Homo sapiens (Human), UniProt P24941). Kind of data set: CDK2/CyclinE kinase assay (Nanosyn, Caliper microfluidic). The conditions noted are these: for IC50: read-out: CDK2/CycE IC50. In kind it is biochemical. As for the experimental part:
Selected compounds disclosed herein were tested in CDK4/cyclinD1, CDK6/CycD3 CDK2/CycA and CDK2/cyclinE kinase assays by Nanosyn (Santa Clara, Calif.) to determine their inhibitory effect on these CDKs. The assays were performed using microfluidic kinase detection technology (Caliper Assay Platform). The compounds were tested in 12-point dose-response format in singlicate at Km for ATP. Phosphoacceptor substrate peptide concentration used was 1 μM for all assays and Staurosporine was used as the reference compound for all assays.

The target of data set [4] is CDK2/CyclinA (Homo sapiens (Human), UniProt P24941). Kind of data set: CDK2/CyclinA kinase assay (Nanosyn, Caliper microfluidic). It counts as biochemical. Conditions: for IC50: read-out: CDK2/CycA IC50. As for the experimental part: as §1
CDK2/CyclinA: Enzyme concentration: 0.2 nM; ATP concentration: 50 μM; Incubation time: 3 hr.

Data set [5] can be described thus: Mouse pharmacokinetics (oral gavage / intravenous). In kind it is in vivo, mice. The conditions noted are these: for AUC(0-inf) / clearance / Vd: iv, 10 mg/kg i.v.; for Vd: read-out: Vss.
Data set [6] concerns HSPCs (bone marrow). Kind of data set: HSPC proliferation in bone marrow by EdU incorporation after oral gavage. In kind it is in vivo, mice. As for the experimental part:
Mice were then sacrificed at the indicated times (0, 12, 24, 36, or 48 hours following compound administration), and bone marrow was harvested (n=3 mice per time point), as previously described (Johnson et al. J. Clin. Invest. (2010) 120(7), 2528-2536). Four hours before the bone marrow was harvested, mice were treated with 100 μg of EdU by intraperitoneal injection (Invitrogen). Bone marrow mononuclear cells were harvested and immunophenotyped using previously described methods and percent EdU positive cells were then determined (Johnson et al. J. Clin. Invest. (2010) 120(7), 2528-2536). In brief, HSPCs were identified by expression of lineage markers (Lin-), Sca1 (S+), and c-Kit (K+).
Four hours before animals were sacrificed and the bone marrow was harvested, mice were treated with 100 μg of EdU by intraperitoneal injection. Three mice per group were sacrificed at 12 hours and the remaining three animals per group were sacrificed at 24 hours. Results are shown in FIG. 6A as the ratio of EdU positive cells for treated animals at 12 or 24 hour time points compared to control.
Further experiments were completed with Compound T examining dose response and longer periods of compound treatment. […] […].
Both compounds were administered at 150 mg/kg by oral gavage. One hour prior to harvesting bone marrow, EdU was IP injected to label cycling cells. Bone marrow was harvested at 12, 24, 36, and 48 hours after compound treatment and the percentage of EdU positive HSPC cells was determined at each time point.

Setting [7] is: mouse, plasma, po, 30 mg/kg, mouse, 30 mg/kg oral gavage, read-out: t1/2 p.o. (converted).
Setting [8] is: plasma, mouse, 30 mg/kg oral gavage.

These results are taken from patent US9464092B2, “Transient protection of normal cells during chemotherapy” (G1 Therapeutics, Inc., priority 2013, dated 2016).

Where two headings read alike, the source gives them in different places.

Chain of CDK4/CyclinD1 (P11802 whole entry, species assumed): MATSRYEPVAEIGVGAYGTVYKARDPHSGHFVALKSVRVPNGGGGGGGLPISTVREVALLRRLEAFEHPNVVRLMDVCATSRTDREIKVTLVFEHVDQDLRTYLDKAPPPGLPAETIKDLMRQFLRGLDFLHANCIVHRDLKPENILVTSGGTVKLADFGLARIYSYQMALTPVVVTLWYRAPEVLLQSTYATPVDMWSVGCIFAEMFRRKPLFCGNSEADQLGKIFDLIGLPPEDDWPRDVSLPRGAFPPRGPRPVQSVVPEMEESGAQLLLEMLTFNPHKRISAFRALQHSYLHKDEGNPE
Chain of CDK4/CyclinD1 (P24385 whole entry partner, species assumed): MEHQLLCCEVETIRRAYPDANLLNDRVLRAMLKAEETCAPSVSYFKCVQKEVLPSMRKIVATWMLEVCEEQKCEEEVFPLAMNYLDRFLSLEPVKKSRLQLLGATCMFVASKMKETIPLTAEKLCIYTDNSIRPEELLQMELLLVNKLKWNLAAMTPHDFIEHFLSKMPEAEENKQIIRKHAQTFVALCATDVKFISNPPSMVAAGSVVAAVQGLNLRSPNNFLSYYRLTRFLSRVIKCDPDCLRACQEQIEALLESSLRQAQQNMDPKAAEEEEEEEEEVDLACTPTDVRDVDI

What is called EC50 is the concentration needed to bring the measured effect to its halfway point. A lower EC50 goes with greater potency. As for `CCC(C)CN1CCN(c2ccc(Nc3ncc4cc5n(c4n3)C3(CCCC3)CNC5=O)nc2)CC1` (stereo not drawn) [AAA], in data set [1], the IC50 is 2.3 nM. The compound further displayed an EC50 in data set [2] (HS68 cells) of 275 nM. For the same compound, in data set [3] (Table 2), the “Fold Selectivity (CDK2/CycE/CDK4)” value is on record as 2591 and the IC50 came out at 6010 nM. In addition, in data set [4] (Table 2), the “Fold Selectivity (CDK2/CycA/CDK4)” value amounted to 918 and the IC50 was 2130 nM.
What is called AUC(0-inf) is total exposure, with the tail of the curve extrapolated. Usually AUC stands for the area under the concentration-time curve, a measure of exposure. Read a low AUC as less exposure. As a reminder, the Cmax is the highest concentration seen after dosing. A word on the Tmax: it is the time at which the peak concentration occurs. With `O=C1NCC2(CCCCC2)n2c1cc1cnc(Nc3ccc(N4CCNCC4)cn3)nc12` [Compound Q], the “oral bioavailability (in words)” value in data set [5] (mice) was “low”. In data set [5] (mouse), this compound displayed an F of 2%. Further, the half-life in data set [5] (setting [7]) was 48 min. Also, in data set [5] (plasma, mouse), the AUC(0-inf) was 0.95 µM·h, the clearance was 44 mL/min/kg and the Vd amounted to 5.2 L/kg. In addition, in data set [5] (setting [8]), the AUC is 0.15 µM·h, the concentration peaked (Cmax) at 160 nM and the time of peak concentration (Tmax) is 30 min. Further, the “EdU incorporation into HSPCs at 12 and 24 hours compared to control” value in data set [6] (150 mg/kg oral gavage) is “some reduction at 12 hours and started to return to baseline at 24 hours”. Also, in data set [6] (oral gavage, mice), the “G1-arrest of bone marrow stem cells (HSPC)” value was “dose dependent, transient, and reversible G1-arrest”.
One may read the bioavailability as the share of a dose that reaches the circulation, judged against a reference dose that is usually intravenous. In data set [5] (mouse), `O=C1NCC2(CCCCC2)n2c1cc1cnc(Nc3ccc(N4CCC(N5CCOCC5)CC4)cn3)nc12` [Compound U, 2′-((5-(4-morpholinopiperidin-1-yl)pyridin-2-yl)amino)-7′,8′-dihydro-6′H-spiro[cyclohexane-1,9′-pyrazino[1′,2′:1,5]pyrrolo[2,3-d]pyrimidin]-6′-one] displayed an F of 67%. The half-life in data set [5] (setting [7]) is 180 min. Besides, the half-life in data set [5] (mouse, plasma, po, 30 mg/kg, mouse, read-out: plasma half-life following oral administration) lay within 180 to 300 min. Besides, in data set [5] (mouse, plasma, po, 30 mg/kg, read-out: oral bioavailability (F (%))), the bioavailability is 52 to 80%. Further, in data set [5] (plasma, mouse), the AUC(0-inf) was 0.76 µM·h, the clearance came out at 52 mL/min/kg and the Vd is 3.4 L/kg. Moreover, in data set [5] (setting [8]), the AUC turned out to be 3.3 µM·h, the highest level (Cmax) was 4200 nM and the Tmax was 30 min. Besides, in data set [3] (Table 2), the IC50 worked out at 1460 nM. The IC50 in data set [3] (Table 3) amounted to 1460 nM. Also, in data set [4] (Table 2), the IC50 amounted to 857 nM. Besides, the IC50 in data set [4] (Table 3) is 857 nM.
With `CCC(C)CN1CCN(c2ccc(Nc3ncc4cc5n(c4n3)C3(CCCC3)CNC5=O)nc2)CC1` (stereo not drawn) [FFF], in data set [1], the IC50 was determined as 4.7 nM. In addition, the EC50 in data set [2] (HS68 cells) came to 650 nM. Moreover, in data set [3] (Table 2), the “Fold Selectivity (CDK2/CycE/CDK4)” value was 966 and the IC50 was 4540 nM. For the same compound, in data set [4] (Table 2), the “Fold Selectivity (CDK2/CycA/CDK4)” value was 291 and the IC50 was 1370 nM.
`CC1CN(c2ccc(Nc3ncc4cc5n(c4n3)C3(CCCC3)CNC5=O)nc2)CC(C)N1CCC(C)(C)C` (stereo not drawn) [PPP]: the IC50 in data set [1] was found to be 0.8 nM. In data set [2] (Homo sapiens, Hs68, HS68 cells), this compound returned an EC50 of 275 nM. In addition, in data set [3] (Table 2), the “Fold Selectivity (CDK2/CycE/CDK4)” value is recorded as 21263 and the IC50 worked out at 16500 nM. Besides, in data set [4] (Table 2), the “Fold Selectivity (CDK2/CycA/CDK4)” value was 3402 and the IC50 amounted to 2640 nM.
For the compound `CCC(C)[C@@H]1CNC(=O)c2cc3cnc(Nc4ccc(N5CCN(C)CC5)cn4)nc3n21` (stereo partly drawn) [VVV], in data set [1], the IC50 turned out to be 7.4 nM. In data set [2] (Homo sapiens, Hs68, HS68 cells), the EC50 came to 300 nM. Besides, in data set [3] (Table 2), the “Fold Selectivity (CDK2/CycE/CDK4)” value is listed as 589 and the IC50 came to 4380 nM.
Turning to `CC1CN(c2ccc(Nc3ncc4cc5n(c4n3)C3(CCCCC3)CNC5=O)nc2)CCN1CC(C)(C)O` (stereo not drawn) [W], the IC50 in data set [1] turned out to be 2.7 nM; in data set [3] (Table 2) it was 3970 nM; in data set [4] (Table 2) it was 539 nM. For the same compound, the “Fold Selectivity (CDK2/CycE/CDK4)” value in data set [3] (Table 2) was 1481. In data set [4] (Table 2), the “Fold Selectivity (CDK2/CycA/CDK4)” value was 201.
Regarding `C[C@H](O)CN1CCN(c2ccc(Nc3ncc4cc5n(c4n3)C3(CCCC3)CNC5=O)nc2)C[C@H]1C` [XX], the IC50 in data set [1] was 1.3 nM. Moreover, in data set [3] (Table 2), the “Fold Selectivity (CDK2/CycE/CDK4)” value was determined as 5615 and the IC50 came out at 7300 nM. Besides, in data set [4] (Table 2), the “Fold Selectivity (CDK2/CycA/CDK4)” value is given as 4838 and the IC50 stood at 6290 nM.
On to `O=C1NCC2(CCCCC2)n2c1cc1cnc(Nc3ccc(N4CCC(N5CCC(C(F)(F)F)CC5)CC4)cn3)nc12` [X], for which the IC50 in data set [1] worked out at 0.9 nM; in data set [3] (Table 2) it was 11600 nM; in data set [4] (Table 2), 1840 nM. Further, the “Fold Selectivity (CDK2/CycE/CDK4)” value in data set [3] (Table 2) came to 12975. Further, the “Fold Selectivity (CDK2/CycA/CDK4)” value in data set [4] (Table 2) turned out to be 2058.
In the case of `O=C1NCC2(CCCCC2)n2c1cc1cnc(Nc3ccc(C(=O)N4CCNCC4)cn3)nc12` [Y], the IC50 in data set [1] was determined as 2.5 nM. Moreover, in data set [3] (Table 2), the “Fold Selectivity (CDK2/CycE/CDK4)” value turned out to be 50 and the IC50 amounted to 124 nM. For the same compound, in data set [4] (Table 2), the “Fold Selectivity (CDK2/CycA/CDK4)” value is on record as 25 and the IC50 is 61 nM.
Take `C[C@H](O)CN1[C@H](C)CN(c2ccc(Nc3ncc4cc5n(c4n3)C3(CCCCC3)CNC5=O)nc2)C[C@@H]1C` [Z]: the IC50 in data set [1] came to 3.2 nM. Also, in data set [3] (Table 2), the “Fold Selectivity (CDK2/CycE/CDK4)” value is recorded as 1174 and the IC50 was 3710 nM. Also, in data set [4] (Table 2), the “Fold Selectivity (CDK2/CycA/CDK4)” value came out at 205 and the IC50 stood at 647 nM.
